In patent US8962641B2, “Pyrimidine-substituted pyrrolidine derivatives, pharmaceutical compositions and uses thereof” (Boehringer Ingelheim International GmbH, priority 2013, dated 2015) one finds IC50 data, which are given here for 64 compounds.

This assay deals with human ACC2 (Homo sapiens (Human), UniProt O00763). As to the kind of experiment: ACC2 assay (spectrophotometric 384 well assay, NADH-linked kinetic method). The following applies: hACC2 construct lacking 128 N-terminal amino acids; coupled lactate dehydrogenase/pyruvate kinase reaction, 340 nm, 25° C. It is filed as biochemical. The method in brief:
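Baculovirus/insect-cell human ACC2, anion-exchange purified; ADP formation coupled to pyruvate kinase/lactate dehydrogenase, NADH loss followed at 340 nm, 25° C, 15 min. Final 200 μM NADH and acetyl-CoA, 500 uM ATP; vehicle and no-acetyl-CoA wells set 100% and 0%.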

pIC50: −log10 of the molar value.

Sequence of human ACC2 (O00763 129-2458): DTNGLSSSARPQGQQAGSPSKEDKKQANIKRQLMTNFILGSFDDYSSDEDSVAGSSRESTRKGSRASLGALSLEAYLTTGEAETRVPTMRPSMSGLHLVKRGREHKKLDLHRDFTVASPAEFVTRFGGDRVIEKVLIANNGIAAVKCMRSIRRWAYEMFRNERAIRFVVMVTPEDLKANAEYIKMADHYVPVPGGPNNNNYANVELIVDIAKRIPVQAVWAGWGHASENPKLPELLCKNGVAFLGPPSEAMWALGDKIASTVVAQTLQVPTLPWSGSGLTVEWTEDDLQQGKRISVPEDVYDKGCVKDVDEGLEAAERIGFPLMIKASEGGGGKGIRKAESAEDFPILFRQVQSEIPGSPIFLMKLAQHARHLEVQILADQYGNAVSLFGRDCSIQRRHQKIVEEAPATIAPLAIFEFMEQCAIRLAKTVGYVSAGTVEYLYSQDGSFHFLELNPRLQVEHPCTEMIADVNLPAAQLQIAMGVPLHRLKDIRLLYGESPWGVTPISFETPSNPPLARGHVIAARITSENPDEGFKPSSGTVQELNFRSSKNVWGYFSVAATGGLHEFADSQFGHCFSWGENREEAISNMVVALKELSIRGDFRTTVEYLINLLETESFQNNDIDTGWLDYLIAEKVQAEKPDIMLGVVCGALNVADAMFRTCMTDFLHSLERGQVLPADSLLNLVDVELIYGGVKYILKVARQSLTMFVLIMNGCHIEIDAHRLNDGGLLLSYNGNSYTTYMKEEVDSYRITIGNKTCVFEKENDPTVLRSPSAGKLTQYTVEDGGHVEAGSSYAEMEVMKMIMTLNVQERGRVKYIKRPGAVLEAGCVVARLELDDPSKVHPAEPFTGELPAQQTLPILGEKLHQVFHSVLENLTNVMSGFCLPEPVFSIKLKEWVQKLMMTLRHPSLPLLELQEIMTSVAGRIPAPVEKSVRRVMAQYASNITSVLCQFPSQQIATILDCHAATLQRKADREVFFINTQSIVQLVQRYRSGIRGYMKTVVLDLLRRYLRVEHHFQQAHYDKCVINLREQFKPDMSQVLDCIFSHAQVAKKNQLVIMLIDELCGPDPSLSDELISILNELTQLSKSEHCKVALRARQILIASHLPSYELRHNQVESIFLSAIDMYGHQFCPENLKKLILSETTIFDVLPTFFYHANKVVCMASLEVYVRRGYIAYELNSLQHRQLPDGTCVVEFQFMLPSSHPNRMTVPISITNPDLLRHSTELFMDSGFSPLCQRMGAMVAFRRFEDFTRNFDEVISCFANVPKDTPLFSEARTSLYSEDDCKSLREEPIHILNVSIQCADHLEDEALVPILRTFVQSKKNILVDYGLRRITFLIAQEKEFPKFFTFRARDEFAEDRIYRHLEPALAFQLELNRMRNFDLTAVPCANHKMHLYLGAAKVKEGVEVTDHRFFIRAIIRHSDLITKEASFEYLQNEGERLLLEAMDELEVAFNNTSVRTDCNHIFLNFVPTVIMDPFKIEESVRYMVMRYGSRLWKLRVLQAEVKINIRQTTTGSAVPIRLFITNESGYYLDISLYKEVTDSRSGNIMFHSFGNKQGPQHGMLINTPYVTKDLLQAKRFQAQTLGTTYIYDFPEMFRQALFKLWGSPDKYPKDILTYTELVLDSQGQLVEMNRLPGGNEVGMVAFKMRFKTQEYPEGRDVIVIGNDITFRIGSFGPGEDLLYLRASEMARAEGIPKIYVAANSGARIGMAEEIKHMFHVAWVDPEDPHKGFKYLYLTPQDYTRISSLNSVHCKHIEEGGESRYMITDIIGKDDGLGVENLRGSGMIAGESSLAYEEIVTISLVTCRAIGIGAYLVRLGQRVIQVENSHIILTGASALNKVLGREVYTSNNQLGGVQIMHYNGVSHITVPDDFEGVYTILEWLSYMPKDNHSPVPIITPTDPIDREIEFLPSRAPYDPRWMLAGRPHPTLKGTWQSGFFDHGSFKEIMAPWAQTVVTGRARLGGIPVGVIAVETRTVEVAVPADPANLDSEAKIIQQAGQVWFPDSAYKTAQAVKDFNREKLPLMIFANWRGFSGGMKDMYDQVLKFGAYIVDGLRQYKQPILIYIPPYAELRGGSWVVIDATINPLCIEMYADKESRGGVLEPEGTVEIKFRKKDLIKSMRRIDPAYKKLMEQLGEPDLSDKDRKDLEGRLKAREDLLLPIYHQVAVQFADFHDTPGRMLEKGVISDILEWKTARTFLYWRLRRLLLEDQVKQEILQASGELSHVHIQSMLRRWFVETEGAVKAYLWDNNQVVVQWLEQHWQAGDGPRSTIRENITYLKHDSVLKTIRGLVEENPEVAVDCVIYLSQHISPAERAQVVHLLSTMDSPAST

Take `CC(=O)N[C@@H](C)c1ccc(O[C@@H]2CCN(c3ccnc(N4CCOC(C)(C)C4)n3)C2)cc1` [Example 8.89]: the pIC50 (commonly −log10 of the IC50, conventionally taken in molar units) is 6.53. Then `CC(=O)N[C@@H](C)c1ccc(O[C@@H]2CCN(c3ccnc(N4[C@H](C)COC[C@@H]4C)n3)C2)cc1` [Example 8.90], with 6.44; and `CC(=O)N[C@@H](C)c1ccc(O[C@@H]2CCN(c3ccnc(N4CCSCC4)n3)C2)cc1` [Example 8.91], with 6.98; and `CC(=O)N[C@@H](C)c1ccc(O[C@@H]2CCN(c3ncnc(N(C)CC4CC4)c3F)C2)cc1` [Example 8.92], with 7.00.

In turn, `CC(=O)N[C@@H](C)c1ccc(O[C@@H]2CCN(c3ncnc(N(C)C)c3F)C2)cc1` [Example 8.93] gave a pIC50 of 6.36. Then `CCN(C)c1ncnc(N2CC[C@@H](Oc3ccc([C@H](C)NC(C)=O)cc3)C2)c1F` [Example 8.94], with 6.78; and `CCN(CC)c1ncnc(N2CC[C@@H](Oc3ccc([C@H](C)NC(C)=O)cc3)C2)c1F` [Example 8.95], with 7.10; and `CC(=O)N[C@@H](C)c1ccc(O[C@@H]2CCN(c3nc(N4CCOCC4)ncc3Cl)C2)cc1` [Example 8.96], with 6.58. With `C[C@H](NC(=O)c1cncs1)c1ccc(O[C@@H]2CCN(c3ccnc(N(C)CC(F)F)n3)C2)cc1` [Example 8.97], the negative logarithm of the IC50 (pIC50) is 7.10. With `C[C@H](NC(=O)c1cncs1)c1ccc(O[C@@H]2CCN(c3ccnc(N(C)CCC#N)n3)C2)cc1` [Example 8.98], the pIC50 was 6.67. For `C[C@H](NC(=O)c1cncs1)c1ccc(O[C@@H]2CCN(c3nc(N(C)C)ncc3F)C2)cc1` [Example 8.99] the value was 6.92; for `CCN(CC)c1ncnc(N2CC[C@@H](Oc3ccc([C@H](C)NC(C)=O)cc3)C2)c1C` [Example 8.100], 6.74. Take `CCN(C)c1ncnc(N2CC[C@@H](Oc3ccc([C@H](C)NC(C)=O)cc3)C2)c1C` [Example 8.101]: the pIC50 was 6.42. As for `CCN(C)c1ncnc(N2CC[C@@H](Oc3ccc([C@H](C)NC(C)=O)cc3)C2)c1Cl` [Example 8.102], the negative-log IC50 (pIC50) was 7.06. For `CC(=O)N[C@@H](C)c1ccc(O[C@@H]2CCN(c3ncnc(N4CCCC4)c3Cl)C2)cc1` [Example 8.103] the value was 6.92. For `CCN(CC)c1ncnc(N2CC[C@@H](Oc3ccc([C@H](C)NC(C)=O)cc3)C2)c1Cl` [Example 8.104] the value was 7.23; for `CCN(CCOC)c1nccc(N2CC[C@@H](Oc3ccc([C@H](C)NC(C)=O)cc3)C2)n1` [Example 8.106], 6.80. For `CC(=O)N[C@@H](C)c1ccc(O[C@@H]2CCN(c3ccnc(N(CCC#N)C4CC4)n3)C2)cc1` [Example 8.107] the value was 6.28; for `CC(=O)N[C@@H](C)c1ccc(O[C@@H]2CCN(c3ccnc(N(CCC#N)C4CCCC4)n3)C2)cc1` [Example 8.108], 6.43. Compound `CCCN(CCC#N)c1nccc(N2CC[C@@H](Oc3ccc([C@H](C)NC(C)=O)cc3)C2)n1` [Example 8.109] showed a negative logarithm of the IC50 (pIC50) of 6.61. Then `CC(=O)N[C@@H](C)c1ccc(O[C@@H]2CCN(c3ccnc(N(CCC#N)CC4CCCO4)n3)C2)cc1` (stereo partly shown) [Example 8.110], with 6.63; and `CC(=O)N[C@@H](C)c1ccc(O[C@@H]2CCN(c3ncnc(N4CC(F)(F)C4)c3Cl)C2)cc1` [Example 8.111], with 6.94.

Turning to `CC(=O)N[C@@H](C)c1ccc(O[C@@H]2CCN(c3ncnc(N4CCCCC4)c3Cl)C2)cc1` [Example 8.112], the pIC50 is 7.28. Then `CC(=O)N[C@@H](C)c1ccc(O[C@@H]2CCN(c3ncnc(N4CCC5(CC5)C4)c3Cl)C2)cc1` [Example 8.113], with 7.40; and `CC(=O)N[C@@H](C)c1ccc(O[C@@H]2CCN(c3ncnc(N4CCC(F)(F)C4)c3Cl)C2)cc1` [Example 8.114], with 7.10. Then `CC(=O)N[C@@H](C)c1ccc(O[C@@H]2CCN(c3ncnc(N(C)CC(F)F)c3Cl)C2)cc1` [Example 8.115], with 6.78; and `CCN(CCC#N)c1ncnc(N2CC[C@@H](Oc3ccc([C@H](C)NC(C)=O)cc3)C2)c1Cl` [Example 8.116], with 6.33. Take `CC(=O)N[C@@H](C)c1ccc(O[C@@H]2CCN(c3ncnc(N4CCOCC4)c3Cl)C2)cc1` [Example 8.117]: the negative-log IC50 (pIC50) was 6.31. For `CCNc1ncnc(N2CC[C@@H](Oc3ccc([C@H](C)NC(C)=O)cc3)C2)c1F` [Example 8.118] the value was 5.61. In turn, `CC(=O)N[C@@H](C)c1ccc(O[C@@H]2CCN(c3ncnc(NC4CCCC4)c3F)C2)cc1` [Example 8.119] gave a negative logarithm of the IC50 (pIC50) of 6.68.

With `CCCNc1ncnc(N2CC[C@@H](Oc3ccc([C@H](C)NC(C)=O)cc3)C2)c1F` [Example 8.120], the pIC50 was 6.38.

For the compound `CC(=O)N[C@@H](C)c1ccc(O[C@@H]2CCN(c3ncnc(NCC4CC4)c3F)C2)cc1` [Example 8.121], the pIC50 was 6.77. For the compound `CC(=O)N[C@@H](C)c1ccc(O[C@@H]2CCN(c3ncnc(N(C)CC4CCOC4)c3F)C2)cc1` (stereo partly shown) [Example 8.122], the pIC50 is 6.26. For `CC(=O)N[C@@H](C)c1ccc(O[C@@H]2CCN(c3nc(N(C)C4CCCC4)ncc3Cl)C2)cc1` [Example 8.124] the value was 6.95; for `CC(=O)N[C@@H](C)c1ccc(O[C@@H]2CCN(c3ncnc(N(C)C4CCCC4)c3F)C2)cc1` [Example 8.125], 7.05; for `CC(=O)N[C@@H](C)c1ccc(O[C@@H]2CCN(c3nc(N(C)CC4CC4)ncc3Cl)C2)cc1` [Example 8.126], 7.24. For `CC(=O)N[C@@H](C)c1ccc(O[C@@H]2CCN(c3nc(N4CCCCC4)ncc3Cl)C2)cc1` [Example 8.127] the value was 6.97; for `CC(=O)N[C@@H](C)c1ccc(O[C@@H]2CCN(c3nc(N4CCC(F)(F)C4)ncc3Cl)C2)cc1` [Example 8.128], 6.56; for `CC(=O)N[C@@H](C)c1ccc(O[C@@H]2CCN(c3ncnc(N4CCCC4)c3F)C2)cc1` [Example 8.129], 7.17. For `COCCN(C)c1ncc(Cl)c(N2CC[C@@H](Oc3ccc([C@H](C)NC(C)=O)cc3)C2)n1` [Example 8.130] the value was 7.10; for `CC(=O)N[C@@H](C)c1ccc(O[C@@H]2CCN(c3nc(N(C)CCC#N)ncc3Cl)C2)cc1` [Example 8.131], 6.34; for `CC(=O)N[C@@H](C)c1ccc(O[C@@H]2CCN(c3ncnc(N(C)CC(F)F)c3F)C2)cc1` [Example 8.132], 6.69. Take `CC(=O)N[C@@H](C)c1ccc(O[C@@H]2CCN(c3ncnc(N(C)C4CC4)c3F)C2)cc1` [Example 8.133]: the pIC50 was 6.52. Then `COCCN(C)c1ncnc(N2CC[C@@H](Oc3ccc([C@H](C)NC(C)=O)cc3)C2)c1F` [Example 8.134], with 6.68. Then `CC(=O)N[C@@H](C)c1ccc(O[C@@H]2CCN(c3ncnc(N(C)C(C)C)c3F)C2)cc1` [Example 8.135], with 6.88; and `CC(=O)N[C@@H](C)c1ccc(O[C@@H]2CCN(c3nc(N(C)CC(F)F)ncc3Cl)C2)cc1` [Example 8.136], with 7.15; and `CC(=O)N[C@@H](C)c1ccc(O[C@@H]2CCN(c3ncnc(N(C)CCC#N)c3F)C2)cc1` [Example 8.137], with 6.17. For `CC(=O)N[C@@H](C)c1ccc(O[C@@H]2CCN(c3ncnc(N4CCCCC4)c3F)C2)cc1` [Example 8.138] the value was 6.98; for `CC(=O)N[C@@H](C)c1ccc(O[C@@H]2CCN(c3ncnc(N4CCC(C)C4)c3F)C2)cc1` (stereo partly shown) [Example 8.139], 7.31. As for `CC(=O)N[C@@H](C)c1ccc(O[C@@H]2CCN(c3ncnc(N4CCC(F)(F)C4)c3F)C2)cc1` [Example 8.140], the pIC50 was 6.96. For `CC(=O)N[C@@H](C)c1ccc(O[C@@H]2CCN(c3nc(N(C)C(C)C)ncc3Cl)C2)cc1` [Example 8.141] the value was 6.83; for `CC(=O)N[C@@H](C)c1ccc(O[C@@H]2CCN(c3nc(N4CCC(C)C4)ncc3Cl)C2)cc1` (stereo partly shown) [Example 8.142], 6.86; for `CC(=O)N[C@@H](C)c1ccc(O[C@@H]2CCN(c3ncnc(N4CCOCC4)c3F)C2)cc1` [Example 8.143], 6.37. For `CCCN(C)c1ncnc(N2CC[C@@H](Oc3ccc([C@H](C)NC(C)=O)cc3)C2)c1F` [Example 8.144] the value was 6.98; for `CC(=O)N[C@@H](C)c1ccc(O[C@@H]2CCN(c3nc(N(C)C4CC4)ncc3Cl)C2)cc1` [Example 8.145], 7.03; for `CC(=O)N[C@@H](C)c1ccc(O[C@@H]2CCN(c3nc(N4C[C@@H]5C[C@H]4CO5)ncc3Cl)C2)cc1` [Example 8.146], 6.01. Then `CC(=O)N[C@@H](C)c1ccc(O[C@@H]2CCN(c3ncnc(N4C[C@@H]5C[C@H]4CO5)c3F)C2)cc1` [Example 8.147], with 5.63; and `CC(=O)N[C@@H](C)c1ccc(O[C@@H]2CCN(c3ncnc(N(C)C[C@H]4CCCO4)c3F)C2)cc1` [Example 8.148], with 6.70; and `CCN(CCC#N)c1ncc(Cl)c(N2CC[C@@H](Oc3ccc([C@H](C)NC(C)=O)cc3)C2)n1` [Example 8.149], with 6.41. Turning to `COC[C@@H](C)N(C)c1ncc(F)c(N2CC[C@@H](Oc3ccc([C@H](C)NC(C)=O)cc3)C2)n1` [Example 8.150], the negative-log IC50 (pIC50) is 6.80.

Consider `CC(=O)N[C@@H](C)c1ccc(O[C@@H]2CCN(c3nc(N4CCCC4(C)C)ncc3Cl)C2)cc1` [Example 8.152], for which the negative logarithm of the IC50 (pIC50) is 6.67. For `COC1CCN(c2ncc(Cl)c(N3CC[C@@H](Oc4ccc([C@H](C)NC(C)=O)cc4)C3)n2)CC1` [Example 8.153] the value was 6.17; for `CC(=O)N[C@@H](C)c1ccc(O[C@@H]2CCN(c3nc(N4CCCC4C)ncc3Cl)C2)cc1` (stereo partly shown) [Example 8.154], 6.99. For `CC(=O)N[C@@H](C)c1ccc(O[C@@H]2CCN(c3nc(N4C[C@@H]5C[C@H]4CO5)ncc3F)C2)cc1` [Example 8.155] the value was 6.21.
